One series has as its system neural stem cells. The series is described as follows: In vitro differentiation assay on adult neural stem cells (beta-III-tubulin promoter firefly/Renilla dual luciferase reporter). It is filed as cell-based, rat. From the text: The neuroregenerative effect of the compounds according to the present invention can be assayed in vitro by measuring their stimulation of the differentiation of neural stem cells. Therefore, adult neural stem cells have to be isolated and subsequently cultivated in a suitable culture medium. After several passages in vitro the stem cells have to be co-transfected with a DNA construct coding for two discriminable reporter proteins one of them under the control of a constitutive promoter and the other under the control of a beta-III-tubulin promoter. The beta-III-tubulin promoter is induced during the process of neural stem cell differentiation; therefore the reporter protein under the control of this promoter serves as a marker for the stem cell differentiation in such an in vitro dual reporter assay (Schneider et al., J Clin Investigation 2005; 115:2083-2098). The person skilled in the art knows several suitable constitutive promoters such as the SV40-promoter, the TK-promoter, or the CMV-promoter. As discriminable reporter proteins for such a dual reporter assay one can use discriminable luciferases such as firefly luciferase and Renilla luciferase. The transfected cells have to be incubated with the test compound and with a positive and negative controls for normalization and background correction. As a positive control compound one can use retinoic acid (Guan et al., Cell Tissue Res. 2001; 305:171-176; Jacobs et al., Proc. Natl. Acad. Sci. USA 2006; 103:3902-3907), a suitable negative control is the sham treatment of the cells. The neroregenerative activity of the test compound is determined as the ratio of the signal of the beta-III-tubulin promoter controlled reporter versus the signal of the constitutively expressed reporter and is expressed as fold from the control. This assay is suitable to assess the neuroregenerative activity of piperine and derivatives thereof, but also can be used to screen for other potential neuroregenerative compounds. Preferably, such a screening can be used to test compounds which are already known to be suitable as a medicament in terms of its toxicology, bioavailability, solubility, stability etc.
Neural stem cells were isolated from the subventricular zone of 4 week-old male Wistar rats as described (Maurer et al, Proteome Sci. 2003; 1:4). Cells were cultivated in Neurobasal medium (Invitrogen) supplemented with B27 (Invitrogen), 2 mM L-glutamine, 100 units/ml penicillin, 100 units/ml streptomycin, 20 ng/ml […] (EGF), 20 ng/ml fibroblast growth factor-2 (FGF-2), and 2 μg/ml heparin. Once a week the neural stem cells were passaged and experiments were performed after 4 weeks in vitro. For DNA transfection, the cells were dissociated and plated on poly-L-ornithin/laminin-coated 96-well plates at a density of 50.000 cells/well. Cotransfection with the pGL3-p-βIII-tubulin vector (100 ng/well) and the pRL SV40 vector (100 ng/well) was carried out according to the FuGene6 Transfection protocol (Roche). The pRL SV40 vector (Promega) served as an internal control vector.
To amplify the class III β-tubulin gene promoter (fragment −450-+54), rat genomic DNA was used as a template for PCR (Dennis et al., Gene 2002; 294:269-277). The amplified fragment was inserted into the Mlu I/Xho I site of the pGL3-Basic firefly luciferase reporter vector (Promega) to generate the pGL3-p-βIII-tubulin experimental vector.
After overnight incubation, the plate was decanted and given in 8-fold replicates fresh medium containing piperine (Sigma) or vehicle. As a positive control for in vitro differentiation, stem cells were treated by adding 1 μM retinoic acid (Sigma) to the medium missing the mitogens.
After 48 hrs, the cells were harvested to prepare the cellular extracts for luciferase assay following the directions of the manufacturer (Promega). […]

The subject of series [1] is SH-SY5Y neuronal cells. The experiment in a line: In vitro anti-apoptosis assay, staurosporine induced apoptosis, Caspase-Glo 3/7. Format: cell-based, human. The note with it: compound 1 μM in the presence of staurosporine 0.1 μM; SH-SY5Y.
Series [2] has as its system SH-SY5Y neuronal cells. The series is described as follows: In vitro viability assay, cells stably transfected with constitutive Renilla luciferase. The note with it: 1 μM, 5 h. The source says:
The viability assay allows for further assessment of test compounds regarding their effect on cells such as neurons. […] Subsequently, the signal generated by the reporter construct serves as a readout for the viability of the cells in the presence of the test compound. The assay enables the evaluation of potential neurotoxic effects of the test compound itself.
The effect of a compound on the viability of neuronal cells can be assayed in vitro by measuring the survival of neuronal cells transfected with a reporter construct under a constitutive promoter. SH-SY5Y neuronal cells stably transfected with a Renilla luciferase construct under the SV40 promoter were seeded in 96-well plates at a density of 2.5×10^4 cells per well. Following overnight incubation the cells were stimulated with medium containing piperine or vehicle. Staurosporine (0.1 μM) served as positive control. The Renilla luciferase activity was measured 5 h later using a luminometer (Berthold Technologies, Mithras LB 940). Piperine was tested in a range from 0.1 nM to 100 μM final concentration.

The subject of series [3] is motoneural cell line NSC-34. The experiment in a line: Anti-apoptosis assay on motoneural cell line, staurosporine induced apoptosis, Caspase-Glo 3/7. Format: cell-based. The note with it: compound 1 μM in the presence of staurosporine 0.1 μM. As for the experimental part: Instead of the SH-SY5Y cells used in Example 3 and 4, this analysis was performed with motoneural cell line NSC-34. […] Incubation with staurosporine (SP; 0.1 μM) alone served as positive control and incubation with vehicle served as negative control. The degree of apoptosis relative to the staurosporine control is shown in FIG. 4 (vehicle (sham): 6%; staurosporine (SP): 100%; piperine plus staurosporine: 70%; derivative B plus staurosporine: 55%; derivative E plus staurosporine: 75%; derivative G plus staurosporine: 76%; derivative K plus staurosporine: 83%; derivative S plus staurosporine: 77%; derivative U plus staurosporine: 71%).

Regarding `O=C(/C=C/c1ccc(Cl)cc1)N1CCCCC1` [(2E)-3-(4-chlorophenyl)-1-piperidylprop-2-en-1-one], the “differentiation of neural stem cells to neurons, dose dependence” value in the series on neural stem cells (0.2 μM up to 25, 50 or 100 μM, compared with sham and 1 μM retinoic acid) is listed as “significantly stimulates”. For the same molecule, the “Stimulation factor for differentiation of neural stem cells” value in the series with neural stem cells (1 μM final compound concentration, in comparison to sham treatment) is reported as 4.4 x-fold. For the same molecule, the “degree of apoptosis relative to the staurosporine control” value with SH-SY5Y neuronal cells [1] turned out to be 60%; in series [3] it was 71%. Also, in the series on SH-SY5Y neuronal cells [2], the “viability of neuronal cells” value is given as “did not show reduced viability”.
